According to ChEMBL document CHEMBL5247653, “Discovery of Clinical Candidate ACT-777991, a Potent CXCR3 Antagonist for Antigen-Driven and Inflammatory Pathologies” (J Med Chem, 2023):
pIC50: −log10 of the molar value. Activity calls are given as the source filed them. No cut-off for these calls is given here.

Columns and labels:
CYP3A4 = CYP3A4 (Homo sapiens, UniProt P08684); test: […] recombinant human CYP3A4 mediated drug metabolism in human liver microsomes assessed as intrinsic clearance at 1 uM incubated for 45 mins in presence of NADPH regenerating system by LC-MS/MS analysis; format: ADME, Microsome; conditions: read-out: CLH
CYP3A4, sequence (P08684 whole entry): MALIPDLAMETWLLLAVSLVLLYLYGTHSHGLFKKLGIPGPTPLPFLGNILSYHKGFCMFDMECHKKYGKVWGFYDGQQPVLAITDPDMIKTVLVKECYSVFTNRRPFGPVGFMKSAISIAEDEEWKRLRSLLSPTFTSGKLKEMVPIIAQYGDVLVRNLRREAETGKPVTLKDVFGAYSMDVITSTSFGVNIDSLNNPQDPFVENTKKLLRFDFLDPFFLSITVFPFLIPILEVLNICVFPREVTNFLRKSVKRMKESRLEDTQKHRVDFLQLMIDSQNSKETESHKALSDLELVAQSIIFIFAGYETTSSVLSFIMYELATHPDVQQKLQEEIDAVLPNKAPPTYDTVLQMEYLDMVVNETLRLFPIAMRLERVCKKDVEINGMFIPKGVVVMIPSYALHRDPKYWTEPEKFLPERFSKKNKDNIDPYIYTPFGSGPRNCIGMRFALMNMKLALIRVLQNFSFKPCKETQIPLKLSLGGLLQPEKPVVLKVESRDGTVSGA

[1] = Clearance in Cynomolgus monkey at 1.0 mg/kg,iv or 1.25 mg/kg, po; format: ADME, organism-based, Macaca fascicularis; conditions: in vivo
[2] = Cmin in LPS-induced DBA/1 mouse plasma at 0.06 microg/g, po bid preincubated for 3 days followed by LPS stimulation for 30 mins and measured after 72 hrs by flow cytometry; format: ADME, organism-based; conditions: dose 0.06 µg/g, time 6 day, read-out: Cmin
[3] = Drug excretion in urine of Wistar rat assessed as unchanged drug at 1 mg/kg, iv; format: ADME, organism-based; conditions: read-out: Drug excretion
[4] = Half life in Beagle dog at 2.5 mg/kg,iv or 2.5 mg/kg, po; format: ADME, organism-based, Canis lupus familiaris; conditions: in vivo
[5] = Half life in Cynomolgus monkey at 1.0 mg/kg,iv or 1.25 mg/kg, po; format: ADME, organism-based, Macaca fascicularis; conditions: in vivo
[6] = Lipophilicity, log D of compound; format: physicochemical; conditions: octanol/water
[7] = Volume of distribution at steady state in Cynomolgus monkey at 1.0 mg/kg,iv or 1.25 mg/kg, po; format: ADME, organism-based, Macaca fascicularis; conditions: in vivo, read-out: Vdss
[8] = Clearance in Beagle dog at 2.5 mg/kg,iv or 2.5 mg/kg, po; format: ADME, organism-based, Canis lupus familiaris; conditions: in vivo
[9] = Metabolic stability in human hepatocyte assessed as M1 metabolite formation at 1 uM and measured upto 15 mins in presence of NADPH regenerating system by LC-MS/MS analysis; format: ADME, cell-based; conditions: hepatocytes, 0.25 h
[10] = Genotoxicity in Salmonella typhimurium TA98 at 5000 ug in presence of S9 fraction; format: toxicity, subcellular, Salmonella enterica subsp. enterica serovar Typhimurium; conditions: dose 5000 µg
[11] = biological target: C-X-C chemokine receptor type 3 (Rattus norvegicus, UniProt Q9JII9); test: Antagonist activity at CXCR3 in Wistar rat whole blood assessed as receptor internalization incubated for 30 mins in presence of CXCL10 by flow cytometric analysis; format: tissue-based
C-X-C chemokine receptor type 3 (Rattus norvegicus, UniProt Q9JII9), sequence (Q9JII9 whole entry): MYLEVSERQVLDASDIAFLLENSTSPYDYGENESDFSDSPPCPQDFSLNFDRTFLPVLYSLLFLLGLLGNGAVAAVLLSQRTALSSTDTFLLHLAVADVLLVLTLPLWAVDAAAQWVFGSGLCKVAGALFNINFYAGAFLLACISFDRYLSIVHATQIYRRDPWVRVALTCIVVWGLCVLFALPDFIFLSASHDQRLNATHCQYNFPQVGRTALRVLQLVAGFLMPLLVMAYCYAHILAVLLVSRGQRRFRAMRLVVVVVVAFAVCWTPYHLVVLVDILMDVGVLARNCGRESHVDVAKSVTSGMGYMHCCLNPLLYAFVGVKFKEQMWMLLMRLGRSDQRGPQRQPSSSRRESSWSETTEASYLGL

[12] = Metabolic stability in human hepatocytes assessed as intrinsic clearance per 10^6 cells at 1 uM by LC-MS/MS analysis; format: ADME, cell-based, Hepatocyte
[13] = biological target: C-X-C chemokine receptor type 4 (Homo sapiens) (UniProt P61073); test: Binding affinity to CXCR4 (unknown origin) at 10 uM by radioligand binding assay
C-X-C chemokine receptor type 4 (Homo sapiens), sequence (P61073 whole entry): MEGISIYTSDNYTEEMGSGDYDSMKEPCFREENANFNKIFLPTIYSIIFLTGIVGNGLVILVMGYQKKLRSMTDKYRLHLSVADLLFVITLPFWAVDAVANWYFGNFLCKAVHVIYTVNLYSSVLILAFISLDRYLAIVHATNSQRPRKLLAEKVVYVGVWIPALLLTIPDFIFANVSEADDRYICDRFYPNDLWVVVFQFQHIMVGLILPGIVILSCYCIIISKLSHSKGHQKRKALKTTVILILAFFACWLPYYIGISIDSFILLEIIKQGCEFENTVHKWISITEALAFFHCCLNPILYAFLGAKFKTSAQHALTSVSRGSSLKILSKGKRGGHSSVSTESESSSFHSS

[14] = In vivo inhibition of hERG in dog assessed as increase in QTc interval at 24 ug/ml, iv; format: toxicity, organism-based, Canis lupus familiaris; conditions: at 24 µg/mL
[15] = Cmax in Beagle dog at 2.5 mg/kg,iv or 2.5 mg/kg, po; format: ADME, organism-based, Canis lupus familiaris; design: dose 2.5 mg/kg, route iv; conditions: in vivo
[16] = Unbound clearance in Beagle dog plasma at 1 mg/kg, iv; format: ADME, organism-based, Canis lupus familiaris; conditions: in vivo
[17] = Half life in Wistar rat at 3 mg/kg,iv or 3mg/kg, po; format: ADME, organism-based; conditions: in vivo
[18] = Metabolic stability in rat hepatocyte assessed as M3 metabolite formation at 1 uM and measured upto 15 mins in presence of NADPH regenerating system by LC-MS/MS analysis; format: ADME, cell-based; conditions: hepatocytes, 0.25 h
[19] = biological target: T1, C-X-C chemokine receptor type 3 (Homo sapiens) (UniProt P49682); test: Binding affinity to CXCR3 (unknown origin) at 10 uM by radioligand binding assay; conditions: filed as antagonist
T1 sequence (whole entry): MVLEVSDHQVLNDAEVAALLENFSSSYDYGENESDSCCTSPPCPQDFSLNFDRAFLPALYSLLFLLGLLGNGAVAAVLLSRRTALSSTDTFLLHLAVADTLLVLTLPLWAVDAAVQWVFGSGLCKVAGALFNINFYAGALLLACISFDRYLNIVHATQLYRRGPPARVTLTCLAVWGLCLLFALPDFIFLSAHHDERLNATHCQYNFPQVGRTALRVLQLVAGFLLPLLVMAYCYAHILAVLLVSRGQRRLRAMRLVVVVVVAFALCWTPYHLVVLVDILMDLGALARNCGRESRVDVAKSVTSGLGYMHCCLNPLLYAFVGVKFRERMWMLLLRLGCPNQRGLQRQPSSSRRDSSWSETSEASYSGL

[20] = Oral bioavailability in Wistar rat at 3 mg/kg; format: ADME, organism-based; conditions: in vivo
[21] = Metabolic stability in rat hepatocyte assessed as M4 metabolite formation at 1 uM and measured upto 15 mins in presence of NADPH regenerating system by LC-MS/MS analysis; format: ADME, cell-based; conditions: hepatocytes, 0.25 h
[22] = Metabolic stability in dog liver microsomes assessed as M3 metabolite formation at 1 uM and measured upto 15 mins in presence of NADPH regenerating system by LC-MS/MS analysis; format: ADME, Canis lupus familiaris, Microsome; conditions: 0.25 h
[23] = biological target: T2, C-X-C chemokine receptor type 3 (Homo sapiens, UniProt P49682); test: Antagonist activity at CXCR3 in human whole blood assessed as receptor internalization incubated for 30 mins in presence of CXCL10 by flow cytometric analysis; format: tissue-based
T2 sequence (P49682 whole entry): T1 sequence (whole entry)

[24] = In vivo inhibition of hERG in iv dosed dog assessed as increase in QTc interval; format: toxicity, organism-based, Canis lupus familiaris
[25] = Volume of distribution at steady state in Wistar rat at 3 mg/kg,iv or 3 mg/kg, po; format: ADME, organism-based; conditions: in vivo, read-out: Vdss

microsomal CLint at 1 µM (CYP3A4): < 0.04 µL/min/mg
clearance [1]: 5.3 mL/min/kg
concentration at 72 h [2]: 267 ng/mL
dose excreted [3]: 4.4%
half-life [4]: 5.3 h
half-life [5]: 4 h
logD [6]: 2.3
Vd [7]: 1.3 L/kg
clearance [8]: 9.5 mL/min/kg
Stability [9]: Unstable
pIC50 [11]: 6.54
CLH [12]: < 2 µL/min/mg
Activity [13]: inactive
Cmax [15]: 910 ng/mL
CL free [16]: 15 mL/min/kg
half-life [17]: 5.5 h
Stability [18]: Unstable
Activity [19]: Active
bioavailability [20]: 80%
Stability [21]: Unstable
Stability [22]: Unstable
pIC50 [23]: 7.25
Vd [25]: 2.7 L/kg
Compound: Cc1ncn(CC(=O)N2CCN(c3sc(C(F)(F)F)nc3-c3cnc(C(F)(F)F)nc3)C[C@H]2CCO)n1
Activity [10]: Non-Toxic
inhibition (INH) [14]: Toxic
inhibition (INH) [24]: Toxic
